Measured values published in PubChem BioAssay (NCI).
Where “and” joins values, the source holds several entries; their conditions need not be identical. Equal entries are not always repeated.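 Cells were grown in 96-well plates and exposed to each compound for 48 hours at five concentrations; endpoints were interpolated linearly between bracketing concentrations, or set to the highest concentration if not reached. The concentration for 50% growth inhibition is given as GI50. The concentration for full growth arrest is given as TGI.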

What was measured:
Experiment in all cases: DTP human tumour cell line panel, 48 h
CCRF-CEM leukemia = system: CCRF-CEM leukemia
IGROV1 ovarian = system: IGROV1 ovarian
M14 melanoma = system: M14 melanoma
MCF7 breast = system: MCF7 breast
NCI-H23 lung = system: NCI-H23 lung
PC-3 prostate = system: PC-3 prostate
SF-268 CNS = system: SF-268 CNS
SNB-19 CNS = system: SNB-19 CNS
SNB-75 CNS = system: SNB-75 CNS
SR leukemia = system: SR leukemia

SMILES | TGI (CCRF-CEM leukemia) | TGI (IGROV1 ovarian) | TGI (M14 melanoma) | TGI (MCF7 breast) | TGI (NCI-H23 lung) | TGI (PC-3 prostate) | TGI (SF-268 CNS) | TGI (SNB-19 CNS) | TGI (SNB-75 CNS) | TGI (SR leukemia) | GI50 (CCRF-CEM leukemia) | GI50 (IGROV1 ovarian) | GI50 (M14 melanoma) | GI50 (MCF7 breast) | GI50 (NCI-H23 lung) | GI50 (PC-3 prostate) | GI50 (SF-268 CNS) | GI50 (SNB-19 CNS) | GI50 (SNB-75 CNS) | GI50 (SR leukemia)
CCOC(=O)Nc1nc(-c2ccccc2)c(C)s1 | > 100 µM | > 100 µM | > 100 µM | > 100 µM | > 100 µM | > 100 µM | > 100 µM | > 100 µM | > 100 µM | > 100 µM | – | – | – | – | – | – | – | – | – | –
Cc1cccc2c1NC(=O)[C@@H](NC(=O)[C@H](CCC(F)(F)F)[C@H](CCC(F)(F)F)C(N)=O)N=C2c1cccc(F)c1 | > 100 µM | > 100 µM | > 100 µM | > 100 µM | > 100 µM | > 100 µM | 70 µM | 41 µM | 32.1 µM | > 100 µM | > 100 µM | 27.7 µM | 73.2 µM | 24.1 µM | 30.5 µM | 39.5 µM | 23.2 µM | 17 µM | 10.8 µM | 49.4 µM
CCOC(=O)Nc1ccc2c3c(cccc13)-c1ccccc1-2 | > 100 µM | > 100 µM | > 100 µM | > 100 µM | > 100 µM | > 100 µM | > 100 µM | > 100 µM | > 100 µM | > 100 µM | 7.85 µM | 1.98 µM | 4.32 µM | 1.64 µM | 98.1 µM | 9.45 µM | 33.3 µM | 23.5 µM | 8.97 µM | 4.36 µM
Nc1ncnc2occ(-c3ccc(NC(=O)Nc4cc(C(F)(F)F)ccc4F)cc3)c12 | 22.8 µM and > 25 µM | 14.1 µM and 7.18 µM | 21.4 µM and 7.11 µM | 17.7 µM and 12.6 µM | 12.9 µM and 6.86 µM | 15.8 µM and 16.1 µM | 12.5 µM and 8.02 µM | 23.3 µM and 19.5 µM | 9.56 µM and 10.3 µM | 11.7 µM and > 25 µM | 7.55 µM and 1.58 µM | 3.82 µM and 1.27 µM | 5.86 µM and 2.54 µM | 2.37 µM and 1.16 µM | 4.62 µM and 2.09 µM | 5.92 µM and 5.35 µM | 4.68 µM and 2.34 µM | 8.29 µM and 5.71 µM | 3.87 µM and 3.93 µM | 2.15 µM and 1.05 µM
CN(CCNc1ccc(C(=N)N)cc1)c1ccc(C(=N)N)cc1 | > 100 µM | > 100 µM | > 100 µM | > 100 µM | > 100 µM | > 100 µM | > 100 µM | > 100 µM | > 100 µM | > 100 µM | 88.8 µM | 68.8 µM | 57 µM | 30.5 µM | 21.6 µM | 53 µM | 37.8 µM | 27.8 µM | 27.6 µM | 28.6 µM
CN1CCN(C(=O)OCc2nc3c(N4CCOCC4)nc(-c4ccccc4)nc3n2C)CC1 | 1.57 µM | 2.03 µM | 2.44 µM | 2.11 µM | 3.21 µM | 2.49 µM | 2.85 µM | 2.78 µM | 2.27 µM | > 100 µM | 0.321 µM | 0.632 µM | 1.07 µM | 0.389 µM | 1.54 µM | 1.09 µM | 1.41 µM | 1.45 µM | 1.04 µM | 0.35 µM
CC(=O)N[C@@H](Cc1ccc(OP(=O)(O)O)cc1)C(=O)N[C@H]1CCC(=O)N2CCC[C@@H](C(=O)NCc3cccc4ccccc34)N2C1=O | > 25 µM | > 25 µM | > 25 µM | > 25 µM | > 25 µM | > 25 µM | > 25 µM | > 25 µM | > 25 µM | > 25 µM | > 25 µM | > 25 µM | > 25 µM | > 25 µM | > 25 µM | > 25 µM | > 25 µM | > 25 µM | > 25 µM | > 25 µM
O=C(CSc1nc2ccc([N+](=O)[O-])cc2[nH]1)Nc1ccc([N+](=O)[O-])cc1 | > 100 µM | 15.2 µM | 19.9 µM | 8.83 µM | 9.51 µM | 12.5 µM | 14.5 µM | 18 µM | 6.95 µM | > 46.4 µM | 2.48 µM | 2.71 µM | 2.73 µM | 1.95 µM | 2.14 µM | 2.38 µM | 2.72 µM | 3.02 µM | 1.84 µM | 3.15 µM
CC(C)c1ccc2c(c1)CCC1C(C)(CN)CCCC21C (centres undefined) | 3.92 µM | 2.93 µM | 3.1 µM | 2.82 µM | 3.36 µM | 3.12 µM | 3.22 µM | 2.96 µM | 3.19 µM | 2.99 µM | – | – | – | – | – | – | – | – | – | –
Cc1cc(C)c2c(=O)cc(-c3ccc(F)cc3)[nH]c2n1 | > 100 µM | > 100 µM | > 100 µM | > 100 µM | > 100 µM | > 100 µM | > 100 µM | > 100 µM | > 100 µM | 67.7 µM | – | – | – | – | – | 30.1 µM | – | – | – | –
CSc1nc(SC)c2cnn(-c3ccnc4cc(Cl)ccc34)c2n1 | > 100 µM | > 100 µM | > 94.7 µM | > 41 µM | > 54.9 µM | > 100 µM | 58.1 µM | > 100 µM | > 100 µM | > 31.9 µM | > 100 µM | 47.8 µM | 34.8 µM | 2.61 µM | 21.2 µM | > 82.3 µM | 19.7 µM | > 100 µM | > 67.8 µM | 7.88 µM
COc1ccc(/C=C/C(=O)c2ccc(B(O)O)cc2)cc1O | 44.4 µM | > 54.4 µM | 29.6 µM | 32.5 µM | 69.4 µM | 50.1 µM | 78.8 µM | > 64.3 µM | 31.2 µM | > 100 µM | 7.23 µM | 12.5 µM | 8.03 µM | 3.48 µM | 21 µM | 15 µM | 19.9 µM | 18.7 µM | 9.9 µM | 3.2 µM
CC(C)[C@]12O[C@H]1[C@@H]1O[C@]13[C@]1(O[C@H]1C[C@H]1C4=C(CC[C@@]13C)C(=O)OC4)[C@@H]2OC(=O)OC(C)(C)C | > 100 µM | – | 0.0336 µM | > 100 µM | 0.0569 µM | > 41.3 µM | 0.26 µM | > 100 µM | 0.062 µM | – | 0.0377 µM | 0.0164 µM | 0.0157 µM | < 0.0144 µM | < 0.01 µM | 0.0238 µM | 0.0251 µM | 0.128 µM | 0.0193 µM | 0.0159 µM
CCOC(=O)c1cc2c(OC)cc(OC)cc2oc1=O | > 100 µM | > 100 µM | > 100 µM | > 100 µM | > 100 µM | > 100 µM | > 100 µM | > 100 µM | > 100 µM | > 100 µM | – | – | – | – | – | – | – | – | – | –
CCN1C2=C(SC(=S)C1=C1SC(C(=O)c3ccccc3)=C(C(=O)c3ccccc3)S1)SC(=Nc1ccccc1)C2=O | > 100 µM | > 100 µM | > 100 µM | > 100 µM | > 100 µM | > 100 µM | > 100 µM | > 100 µM | > 63.4 µM | > 100 µM | 0.633 µM | 23 µM | > 100 µM | 7.44 µM | 5.43 µM | 17.6 µM | 8.24 µM | 53.4 µM | 12.6 µM | 3.19 µM
O=C(NCCCNc1cc(-c2cn(-c3ccccc3)nc2-c2cccc(O)c2)ccn1)c1ccc(F)cc1 | > 100 µM | 24.9 µM | 4.28 µM | 9.92 µM | 14.8 µM | 15.7 µM | 26.9 µM | 29.5 µM | > 100 µM | 6.53 µM | 1.54 µM | 4.22 µM | 1.85 µM | 2.32 µM | 2.81 µM | 2.81 µM | 2.99 µM | 4.63 µM | 5.19 µM | 1.65 µM
